# Structures can show the parent of a compound that is named as a salt. Where two headings read alike, the source gives them in different places.
# What was measured:
# [1] = tested on: PC12 cells; test: MTT conversion assay of cell viability under serum deprivation; format: cell-based, rat
# [2] = tested on: AKT and ERK; format: cell-based, rat
# [3] = tested on: EGFR; test: EGFR tyrosine phosphorylation, immunoprecipitation and Western blot in PC12 cells; format: cell-based, rat; conditions: for effect on leumorphin-induced tyrosine phosphorylation of EGFR: preincubation 20 min: AG1478 1 μM, PP2 5 μM, naloxone or nor-BNI 1 μM, then leumorphin 1 μM 2 min
# Method: Immunoprecipitation was performed as previously described (Daub et al., 1997). In brief, cells were washed with ice-cold PBS and lysed with lysis buffer (50 mM HEPES pH 7.5, 150 mM NaCl, 1% Triton X-100, 1 mM EDTA, 10% glycerol) containing protease inhibitors (0.5 mM PMSF, 1 μg/ml leupeptin and 5 μg/ml aprotinin) and phosphatase inhibitors (30 mM NaF, 1 mM Na3VO4 and 30 mM Na4O7P2). The cell lysates were incubated for 1 hr at 4° C. After centrifugation (12,000×g for 15 min), equal amounts of soluble extract were incubated for 4 hr, with 5 μg of anti-EGFR antibody and 30 μl of resin volume of immobilized protein G For gel electrophoresis, the precipitates were dissolved in Laemmli sample buffer.
# FIGS. 5C and 5D, PC12 cells were stimulated with the indicated doses of leumorphin for 10 min (C) or with 1 μM of leumorphin for the indicated times (D). […] Cell lysates were subjected to Western blot analysis after immunoprecipitation with EGFR antibodies. Tyrosine-phosphorylated EGFRs were detected by immunoblotting with phosphotyrosine antibodies. The amounts of the precipitated EGFRs were monitored by reprobing the same blot with EGFR antibodies. […] In FIG. 5G, PC12 cells were preincubated with 1 μM AG1478 or 5 μM PP2 for 20 min and then stimulated with 1 μM leumorphin for 10 min. Phosphorylation of AKT and ERK was detected by Western blot analysis as in FIG. 4F. C-E,
# [4] = tested on: PC12 cells; test: DNA ploidy analysis (FACS, sub-Go/Gl) in serum-deprived PC12 cells; format: cell-based, rat; conditions: 24 hr; for effect on the anti-apoptotic effect of leumorphin (sub-Go/Gl): antagonist 1 μM with leumorphin 1 μM
# Method: Cells were suspended in PBS containing 5 mM EDTA and fixed in 100% ethanol. RNase A (50 μg/ml) was added to the suspended cells, and the cells were incubated at room temperature for 30 min. Propidium iodide (2 μg/ml) was added before reading. DNA contents of the cells were analyzed using a FACScan flow cytometer (Becton Dickinson, Franklin Lakes, N.J.), which was also used to determine the percentage of cells in the different phases of the cell cycle.
# (§1) In FIG. 6A, Fragmentation of DNA in the nucleus was detected by a fluorescent TUNEL apoptosis assay. TUNEL stainings are shown in a-c, PI stainings are shown in d-f, and the merged images are presented in g-i. […] Each bar represents a fold increase of TUNEL-positive population of cells after treatment as indicated in serum-deprived condition versus those in serum-growing condition. In FIG. 6C, in order to analyze DNA ploidy, cells were fixed with ethanol, and FACS analysis was performed as described in “Materials and Methods”. In FIG. 6D, caspase-3 activity was measured by using a specific fluorogenic substrate of caspase-3 (Ac-DEVD -AMC) as described in “Materials and Methods”.
# [5] = tested on: PC12 cells; test: Competition binding assay of 125I-labeled leumorphin in PC12 cells; parameters: species or system rat
# Method: Ligand binding analysis was performed as previously described (Bae et al., 2004). Briefly, PC12 cells were seeded at a density of 4×10^5 cells/well into a 12-well plate and cultured overnight. After incubating the cells in blocking buffer (33 mM HEPES (pH 7.5) and 0.1% BSA in RPMI 1640) for 2 hr, 25 pM of ^125I-labeled leumorphin dissolved in binding buffer (PBS containing 0.1% BSA) was added to the cells in the absence or presence of unlabeled ligands and incubated for 3 hr at 4° C. The samples were then washed five times with ice-cold binding buffer, and 500 μl of 1 N NaOH was added to each well. After 10 min at room temperature, the lysates were collected and counted using a gamma counter.
# We investigated the possibility that leumorphin might have another binding site(s), in addition to the binding site for the KOR in PC12 cells. That is, an inhibition of [^125I]leumorphin binding in PC12 cells was investigated. PC12 cells were treated with various concentrations of unlabeled leumorphin, (−)-U-50488 and nor-BNI in the presence of ^125I-labeled leumorphin (25 pM) for 3 hr at 4° C. Specifically bound ^125I-labeled leumorphin was measured as described in “Materials and Methods”. For this purpose, we performed competition binding assay of ^125I-labeled leumorphin with unlabeled-agonists, leumorphin and (−)-U-50488, and an antagonist, nor-BNI.
# [6] = molecular target: T1, KOR (Rattus norvegicus, UniProt P34975); format: cell-based
# T1 construct: confirming that the KOR ligands we used have proper activities and that functional KOR is expressed in PC12 cells; endogenous in cells; host or cells: PC12 (rat pheochromocytoma)
# [7] = tested on: caspase-3; test: Caspase-3 enzymatic activity in PC12 cell lysates; format: cell-based, rat; conditions: 24 hr
# Method: PC12 cell lysates were centrifuged at 1,000×g for 10 min. Equal amount of supernatant (20 μg protein) was diluted in buffer containing 100 mM Hepes, 10% sucrose, 5 mM dithiothreitol, […], and 0.1% CHAPS (pH 7.25), and was added to each well of a 96-well plate containing 50 μM DEVD-aminomethylcoumarin (AMC). After incubation at 37° C. for 1 hr, the cleaved free AMC was detected using a fluorospectrophotometer (excitation of 355 nm, emission of 460 nm).
# as §1
# [8] = tested on: PC12 cells; test: TUNEL apoptosis assay in serum-deprived PC12 cells; format: cell-based, rat; conditions: leumorphin 1 μM, 24 hr
# Method: TUNEL assay was performed according to the manufactures' instruction (Promega Corp.). Briefly, cells on coverslips were fixed with 4% paraformaldehyde for 30 min after stimulation, washed with PBS, permeabilized with 0.2% Triton X-100 for 5 min, rinsed with PBS, and were incubated with 25 μL TUNEL reaction mixture (containing enzyme, nucleotides, and fluorescein-dUTP) in a humidified atmosphere at 37° C. for 1 hr. To observe nuclear morphology, cells were counterstained with 2 μg/ml propidium iodide. Following these incubations, coverslips were rinsed with PBS three times and analyzed under conforcal microscopy We captured images which had at least 100 cells and used five different images from three independent experiments for statistic analysis.
# It has been reported that in PC12 cells apoptosis can be induced by serum deprivation, which mimics the fluctuations in the supply of growth factors (Batistatou et al., 1993). […]
# In FIG. 6A, Fragmentation of DNA in the nucleus was detected by a fluorescent TUNEL apoptosis assay. […] In FIG. 6D, caspase-3 activity was measured by using a specific fluorogenic substrate of caspase-3 (Ac-DEVD -AMC) as described in “Materials and Methods”.
# [9] = tested on: AKT and ERK; test: AKT and ERK phosphorylation in HEK-293 cells that do not express the KOR; format: cell-based; conditions: data not shown
# T1 sequence (P34975 whole entry): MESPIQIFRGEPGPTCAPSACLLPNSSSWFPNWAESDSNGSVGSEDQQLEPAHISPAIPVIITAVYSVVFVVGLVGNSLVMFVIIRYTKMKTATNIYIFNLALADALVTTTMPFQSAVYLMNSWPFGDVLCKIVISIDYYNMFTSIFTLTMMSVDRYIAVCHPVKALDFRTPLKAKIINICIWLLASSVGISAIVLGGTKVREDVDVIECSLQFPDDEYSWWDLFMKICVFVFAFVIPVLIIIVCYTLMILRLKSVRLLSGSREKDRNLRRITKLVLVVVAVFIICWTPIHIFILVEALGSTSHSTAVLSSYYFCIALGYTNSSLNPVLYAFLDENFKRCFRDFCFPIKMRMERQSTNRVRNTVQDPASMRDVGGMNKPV
molecule,measurement,setting,value
"O=c1cc(N2CCOCC2)oc2c(-c3ccccc3)cccc12 [LY294002, [2-(4-morpholinyl)-8-phenyl-4H-1-benzopyran-4-one]]",effect of kinase inhibitor on leumorphin-induced enhancement of cell viability,"[1]; inhibitor 5 μM (AG1478 1 μM) with leumorphin 1 μM, 24 hr",attenuated
UFP-101,effect on leumorphin-induced phosphorylation of AKT and ERK,[2],did not have any effect
C=CCN1CC[C@]23c4c5ccc(O)c4O[C@H]2C(=O)CC[C@@]3(O)[C@H]1C5 [naloxone],effect on leumorphin-induced phosphorylation of AKT and ERK,[2],"Neither of the antagonists, naloxone and nor-BNI, inhibited"
same,effect on the phosphorylation level of AKT and ERK when given alone,[2],did not have any effects
same,effect on leumorphin-induced tyrosine phosphorylation of EGFR,[3],neither nor-BNI nor naloxone exhibited any inhibitory effect
same,effect on leumorphin-induced enhancement of cell viability,[1],insensitive
same,effect on the anti-apoptotic effect of leumorphin (sub-Go/Gl),[4],failed to block
rimorphin,phosphorylation of AKT and ERK,[2],none of these effects were elicited
same,"cell viability (MTT conversion, percentage of surviving cells)",[1],none of these effects were elicited
"β-neoendorphin (YGGFLRKYP; Beta-neoendorphin; UniProt P01213 175-183, looked up) [prodynorphin gene product, endogenous KOR ligand]",phosphorylation of AKT and ERK,[2],none of these effects were elicited
same,"cell viability (MTT conversion, percentage of surviving cells)",[1],none of these effects were elicited
"β-endorphin (YGGFMTSEKSQTPLVTLFKNAIIKNAYKKGE; Beta-endorphin; UniProt P01189 237-267, looked up) [an agonist of the ε-type receptor]",phosphorylation of AKT and ERK,[2],neither AKT nor ERK was phosphorylated
dynorphin,phosphorylation of AKT and ERK,[2],none of these effects were elicited
same,"cell viability (MTT conversion, percentage of surviving cells)",[1],did not have any significant effect on cell viability
"Oc1ccc2c3c1O[C@H]1c4[nH]c5c(c4C[C@@]4(O)[C@@H](C2)N(CC2CC2)CC[C@]314)C[C@@]1(O)[C@H]2Cc3ccc(O)c4c3[C@@]1(CCN2CC1CC1)[C@H]5O4 [nor-BNI, nor-binaltorphimine dihydrochloride]",concentration at which the inhibitory extent reached its maximum and was saturated,"[5]; 25 pM 125I-labeled leumorphin, 3 hr, 4° C.",100 nM
same,effect on leumorphin-induced phosphorylation of AKT and ERK,[2],"Neither of the antagonists, naloxone and nor-BNI, inhibited"
same,effect on the phosphorylation level of AKT and ERK when given alone,[2],did not have any effects
same,effect on leumorphin-induced tyrosine phosphorylation of EGFR,[3],neither nor-BNI nor naloxone exhibited any inhibitory effect
same,effect on the inhibitory effect of leumorphin on forskolin-induced increase of cAMP content,[6],reversed
same,effect on leumorphin-induced enhancement of cell viability,[1],insensitive
same,effect on leumorphin-induced increase in cell viability at higher concentration,[1],failed to attenuate
same,effect on the inhibitory effect of leumorphin on caspase activity,[7]; nor-BNI 1 μM with leumorphin 1 μM,not blocked
same,effect on the anti-apoptotic effect of leumorphin (sub-Go/Gl),[4],failed to block
N#CC(=C(/N)Sc1ccccc1N)/C(C#N)=C(\N)Sc1ccccc1N [U0126],effect of kinase inhibitor on leumorphin-induced enhancement of cell viability,[1],attenuated
"COc1cccc(-c2cc(=O)c3ccccc3o2)c1N [PD98059, [2′-amino-3′-methoxyflavone]",effect of kinase inhibitor on leumorphin-induced enhancement of cell viability,[1],attenuated
CC(C)(C)n1nc(-c2ccc(Cl)cc2)c2c(N)ncnc21 [PP2],effect on leumorphin-induced phosphorylation of AKT and ERK,[2],significantly inhibited
same,effect on leumorphin-induced tyrosine phosphorylation of EGFR,[3],completely blocked to the basal level
same,effect of kinase inhibitor on leumorphin-induced enhancement of cell viability,[1],significantly inhibited
D-Phe-Cys-Tyr-D-Trp-Om-Thr-Pen-Thr-NH2 [CTOP],effect on leumorphin-induced enhancement of cell viability,[1],failed to attenuate
same,effect on leumorphin-induced increase in cell viability at higher concentration,[1],failed to attenuate
leumorphin,concentration up to which the inhibitory extent continued to increase,[5],10 µM
same,replacement of labeled leumorphin,[5],completely replaced
same,population of TUNEL-positive cells increased by serum deprivation,[8],significantly reduced
same,phosphorylation of AKT and ERK,[2],specifically induced phosphorylation of both AKT and ERK
same,tyrosine phosphorylation of EGFR,"[3]; indicated doses for 10 min, 1 μM for indicated times",induced tyrosine phosphorylation of EGFR in dose- and time-dependent manner
same,phosphorylation of AKT and ERK in HEK-293 cells,[9],specifically induced phosphorylation of AKT and ERK
same,effect on forskolin-induced increase of cAMP contents,"[6]; agonist 1 μM, 10 min, Ro-20-1724 pretreatment",inhibitory effect
same,"cell viability (MTT conversion, percentage of surviving cells)",[1],specifically enhanced
same,dose- and time-dependence of enhancement of cell viability,[1],dose-(FIG. 1D) and a time-dependent (FIG. 1E) manner
same,activity of caspase-3 elevated by serum-deprivation,[7]; leumorphin 1 μM,decreased
same,"sub-Go/Gl area, indicative of the apoptotic population","[4]; leumorphin 1 μM, serum deprivation, 35.7±2.2% without leumorphin",25.8±1.8%
CS/C(N)=C(C#N)/C(C#N)=C(\N)SC [U0124],effect of kinase inhibitor on leumorphin-induced enhancement of cell viability,[1],had no effect
Oc1ccc2c3c1O[C@H]1c4[nH]c5ccccc5c4C[C@@]4(O)[C@@H](C2)N(CC2CC2)CC[C@]314 [naltrindole],effect on leumorphin-induced enhancement of cell viability,[1],failed to attenuate
same,effect on leumorphin-induced increase in cell viability at higher concentration,[1],failed to attenuate
pertussis toxin [PTX],effect on leumorphin-induced phosphorylation of AKT and ERK,[2],did not have any inhibitory effects
same,effect on the phosphorylation level of AKT and ERK when given alone,[2],did not have any effects
same,effect on the inhibitory effect of leumorphin on forskolin-induced increase of cAMP content,"[6]; naloxone or nor-BNI 1 μM, PTX 100 ng/ml 20 hr, leumorphin 1 μM",reversed
same,effect on leumorphin-induced enhancement of cell viability,[1],unaffected
